Experimental data as given in patent publication EP3800188A1, “SUBSTITUTED PYRAZOLOPYRIMIDINES AS IRAK4 INHIBITORS” (Bayer AG, priority 2019, dated 2021).
pIC50: −log10 of the molar value. Where two headings read alike, the source gives them in different places.

Tests used:
[1] = Metabolic stability in human liver microsomes; settings: 1 µM compound; for CLblood, human microsomes: hepatic in vivo blood clearance calculated with well stirred liver model, '(stable)' given beside < 0.01; for Fmax, human microsomes: maximal oral bioavailability calculated with well stirred liver model, 0.5 mg/mL protein, '(stable)' given beside 100
human PBMCs = test: In vitro LPS-induced cytokine (TNF-α) production in human PBMCs; type: cell-based; settings: PBMC, 0.1 µg/mL LPS, 24 hours, 30 min preincubation, read-out: activity (LPS-induced TNF-α secretion in human PBMCs)
Description: The effect of the compounds of the general formula (I) on induced cytokine production in human PBMCs was examined.
Cytokine production was induced here by LPS, a TLR4 ligand, which leads to activation of the IRAK4-mediated signal path.
The human PBMCs were obtained from anti-coagulated human whole blood. To this end, 15 mL of Ficoll-Paque (Biochrom, Cat. No. L6115) were initially charged in Leucosep tubes and 20 mL of human blood were added. After centrifugation of the blood at 800 g for 15 min at room temperature, the plasma including the platelets was removed and discarded. The PBMCs were transferred into centrifugation tubes and made up with PBS (phosphate-buffered saline) (Gibco, Cat. No. 14190). The cell suspension was centrifuged at room temperature at 250 g for 10 min and the supernatant was discarded. The PBMCs were resuspended in complete medium (RPMI 1640, without L-glutamine (PAA, Cat. No. E15-039), 10% FCS; 50 U/mL penicillin, 50 µg/mL streptomycin (PAA, Cat. No. P11-010) and 1% L-glutamine (Sigma, Cat. No. G7513)). The assay was also carried out in complete medium. The PBMCs were sown in 96-well plates at a cell density of 2.5x10^5 cells/well. The compounds according to the invention were subjected to serial dilution in a constant volume of 100% DMSO and used in the assay at 8 different concentrations in the range from 10 µM to 3 nM such that the final DMSO concentration was 0.4% DMSO. Prior to the actual stimulation, the cells were then preincubated therewith for 30 min. To induce cytokine secretion, the cells were stimulated with 0.1 µg/mL LPS (Sigma, Escherichia coli 0128:B12, Cat. No. L2887) for 24 hours. Cell viability was determined using the CellTiter-Glo luminescent assay (Promega, Cat. No. G7571 (G755/G756A)) in accordance with the manufacturer's instructions. The amount of secreted TNF-α in the cell culture supernatant was determined using the Human ProInflammatory 9-Plex Tissue Culture Kit (MSD, Cat. No. K15007B) in accordance with the instructions of the manufacturer. By way of example, Example Compounds II-2, I-40, I-56, I-61 have activity ≤ 500 nM.

human IRAK4 = molecular target: T1, human IRAK4 (Homo sapiens, UniProt Q9NWZ3); test: Human IRAK4 kinase activity inhibition assay (IRAK4 TR-FRET assay); type: biochemical; settings: 1 mM ATP, GST-human IRAK4, average or median values
T1 construct: GST (N); made in house; host or cells: baculovirus-infected Hi5 (BTI-TN-5B1-4) insect cells
T1 sequence (Q9NWZ3 1-460): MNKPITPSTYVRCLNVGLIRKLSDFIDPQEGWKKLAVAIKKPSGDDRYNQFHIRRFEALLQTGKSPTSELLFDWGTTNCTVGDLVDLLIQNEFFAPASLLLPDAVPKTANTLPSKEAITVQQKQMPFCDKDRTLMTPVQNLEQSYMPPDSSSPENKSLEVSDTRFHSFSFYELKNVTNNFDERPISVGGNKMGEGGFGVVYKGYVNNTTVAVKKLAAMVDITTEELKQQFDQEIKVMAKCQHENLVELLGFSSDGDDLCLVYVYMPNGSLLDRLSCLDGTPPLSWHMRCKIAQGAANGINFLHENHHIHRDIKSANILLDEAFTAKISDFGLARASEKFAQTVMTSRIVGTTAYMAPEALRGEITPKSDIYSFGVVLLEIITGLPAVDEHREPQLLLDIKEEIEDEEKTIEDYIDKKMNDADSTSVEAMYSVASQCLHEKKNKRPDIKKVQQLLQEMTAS
Outline: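 Signal was the 665/620 nm emission ratio from a europium anti-mouse-IgG, anti-phosphoserine antibody and streptavidin-XL665 complex formed over 1 h at 22°C. It was scaled between no-enzyme (100%) and no-compound (0%) wells. Beforehand, compounds (20 µM down to 0.073 nM, 11 points) sat 15 min with roughly 0.2 nM insect-cell-expressed GST-human IRAK4 before phosphorylation of a biotinylated peptide substrate.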

[2] = 1 µM, pH 7.4
[3] = Metabolic stability in dog liver microsomes; type: in vitro ADME; settings: 1 µM compound; for CLblood, dog microsomes: hepatic in vivo blood clearance calculated with well stirred liver model, '(stable)' given beside < 0.01; for Fmax, dog microsomes: maximal oral bioavailability calculated with well stirred liver model, 0.5 mg/mL protein, '(stable)' given beside 100
Description: From the half-life the intrinsic clearances were calculated.

SMILES	CLblood, human microsomes [1]	Fmax, human microsomes [1]	pIC50 (human PBMCs)	pIC50 (human IRAK4)	CLblood, human microsomes [2]	Fmax, human microsomes [2]	CLblood, dog microsomes [3]	Fmax, dog microsomes [3]
C[C@H]1C[C@H](Nc2nc(N3CCC(C(C)(C)O)CC3)c3cnn(-c4cccc(C(F)(F)F)c4)c3n2)CN1 [Example I-40, 2-[1-(6-{[(3S,5S)-5-methylpyrrolidin-3-yl]amino}-1-[3-(trifluoromethyl)phenyl]-1H-pyrazolo[3,4-d]pyrimidin-4-yl)piperidin-4-yl]propan-2-ol]	1.2 mL/min/kg	95%	≥ 6.30	8.43				
O=C1C[C@H](Nc2nc(N3CC(CC(=O)N4CC5CC(C4)O5)C3)c3cnn(-c4cccc(C(F)(F)F)c4)c3n2)CN1 [Example I-52, (4S)-4-[(4-{3-[2-(6-oxa-3-azabicyclo[3.1.1]heptan-3-yl)-2-oxoethyl]azetidin-1-yl}-1-[3-(trifluoromethyl)phenyl]-1H-pyrazolo[3,4-d]pyrimidin-6-yl)amino]pyrrolidin-2-one]				8.10	< 0.01 (stable) L/h/kg	100 (stable) %		
CS(=O)(=O)[C@H]1C[C@H](Nc2nc(N3CC(N4CCOCC4)C3)c3cnn(-c4cccc(C(F)(F)F)c4)c3n2)C1 [Example I-56, N-[trans-3-(methylsulfonyl)cyclobutyl]-4-[3-(morpholin-4-yl)azetidin-1-yl]-1-[3-(trifluoromethyl)phenyl]-1H-pyrazolo[3,4-d]pyrimidin-6-amine]	1 mL/min/kg	95%	≥ 6.30	8.46			1 mL/min/kg	97%
CC1(O)CCN(C2CN(c3nc(N[C@H]4C[C@H](S(C)(=O)=O)C4)nc4c3cnn4-c3cccc(C(F)(F)F)c3)C2)CC1 [Example I-61, 4-methyl-1-[1-(6-{[trans-3-(methylsulfonyl)cyclobutyl]amino}-1-[3-(trifluoromethyl)-phenyl]-1H-pyrazolo[3,4-d]pyrimidin-4-yl)azetidin-3-yl]piperidin-4-ol]	5.17 mL/min/kg	77%	≥ 6.30	8.48				
O=S1(=O)CCC(Nc2nc(N3CC(N4CCOCC4)C3)c3cnn(-c4cccc(C(F)F)c4)c3n2)CC1 [II-2, 1-[3-(difluoromethyl)phenyl]-N-(1,1-dioxidotetrahydro-2H-thiopyran-4-yl)-4-[3-(morpholin-4-yl)azetidin-1-yl]-1H-pyrazolo[3,4-d]pyrimidin-6-amine]	2.5 mL/min/kg	88%	≥ 6.30	8.18			1.2 mL/min/kg	97%
